Experiments:
alloxan-induced diabetes = conditions: animal model; cited from earlier work
rat diaphragms = conditions: in vitro, cited from earlier work
pyruvate dehydrogenase = biological target: T1, pyruvate dehydrogenase (Rattus norvegicus, UniProt P08461+P26284+P49432+Q6P6R2); experiment: Pyruvate dehydrogenase activity after chronic administration in tissues of the spontaneously diabetic rat; assay type: in vivo; conditions: for Pyruvate dehydrogenase activity, trend: spontaneously diabetic rats, 50 mg/kg daily in tail vein, heart muscle, trend after two administrations
T1 construct: The tissue was homogenized; from tissue; host or cells: heart muscle of spontaneously diabetic BB rats
Protocol: After the manifestation of the diabetes, spontaneously diabetic rats (BB-Wol BB, of the Moellegard Company, Denmark, n=10/group) received 0.3 mL of neutral 0.12 M (corresponding to 50 mg/kg of body weight) R-(+)-α-lipoic acid or S-(-)-α-lipoic acid daily, administered in the vein of the tail. A control group received physiological salt solution. After 7 days, the animals were sacrificed. The pyruvate dehydrogenase activity was determined in the heart muscle. The tissue was homogenized.
Pyruvate+NAD^+ +CoA→Acetyl-CoA+CO2 +NADH+H^+
The extinction of the reduced coenzyme is measured at 339 nm in cuvettes with a Shimadzu UV 210 Detector at 37° C. The isolation of the enzyme complex (R. Koeplin, Ph.D. Thesis, University of Tuebingen, FRG, 1988, C. J. Stanley, R. N. Perham, Biochem. J. 191, 147-154, 1980) and the enzyme assay (O. H. Lowry et al. J. Biol. Chem. 256, 815-822, 1951) were carried out as described. The protein was measured by the method of Loary (N. Bashan et al., Am. J. Physiol. m262 (Cell Physiol. 31): C682-690, 1992).

GLUT 4 = experiment: Translocation of GLUT4 glucose transporters in L6 myotubes; assay type: cell-based
Protocol: (§1) L6 myotubes in 15 cm dishes (n=4 to 5) were enlisted and incubated for one hour with 2.5 mM lipoate in MEM with 5 mM of glucose and 2% of fetal bovine serum. The cells were removed, homogenized and worked up in fractions (4° C.). The working up was carried out in an HEPES buffer with a defined addition of protease inhibitor. The cell fractions were obtained in 6 defined centrifuging steps. The fractions were added to a 10% polyacrylamide gel for a Western Blot analysis. The glucose transporters were determined with anti-GLUT1 and anti-GLUT4 antibodies using iodine-labeled protein A and autoradiographic detection.

GLUT1 = experiment: Cellular content of GLUT1 glucose transporters in L6 myotubes; assay type: cell-based; conditions: for Content of GLUT1: L6 myotubes, 2.5 mM, 4 hours of incubation, control 1.00; for cellular content of GLUT1, in words: after four hours of incubation
Protocol: (§2) L6 myotubes were incubated for 4 hours with 2.5 mM lipoic acid enantiomers in an MEM medium with 2% fetal bovine serum and 5 mM glucose. The glucose transporters were detected as described above. The membrane fraction is obtained after a single centrifugation at 210,000 g.

[1] = system: GLUT1 Glucose Transporters; experiment: Translocation of GLUT1 glucose transporters in L6 myotubes (Western blot of cell fractions); assay type: cell-based; conditions: for GLUT1 translocation, Light Microsomal Fraction / GLUT1 translocation, Plasma Membrane: one hour, control 1.00
Protocol: as §1

[2] = system: streptozotocin-induced diabetes; experiment: Diabetes induced tissue damage, streptozotocin-induced diabetes; assay type: in vivo, Wistar rats; conditions: for mortality in comparison to the control / pathologically changed parameter glycosilated hemoglobin, in words / pathologically changed parameter protein oxidation, in words: streptozotocin-induced diabetes; for % Glycosilated Hemoglobin: 1.65 g/kg of food for 14 weeks, streptozotocin diabetic rats, control 9.7 ± 1.5
Protocol: Thioct acid enantiomers were administered for 14 weeks by mouth, together with the food (1.65 g/kg of food), to female Wistar rats (n=3 to 6/group) in separate groups.
In the eighth week, streptozotocin diabetes was induced in the animals. Six weeks after the induction of the diabetes, the surviving animals were sacrificed. Tissue was taken and analyzed.

L6 myotubes = experiment: Glucose assimilation in muscle cells (3H-2-desoxyglucose uptake); assay type: cell-based; conditions: for effect on glucose assimilation together with insulin, in words: 2.5 mM with insulin 200 nM; for effect on glucose assimilation, in words: compared with other enantiomer or insulin (200 nM); for Glucose Assimilation R / Glucose Assimilation S: table 1; for Glucose Assimilation Insulin: insulin 200 nM
Protocol: The tissue muscle cells (L6 myotubes) were prepared in 24-bole plates and differentiated. After incubation with the test substances, an assay was carried out to determine hexose assimilation (^3 H-2-desoxyglucose, 10 μM, 10 minutes). […] After the cells were washed and then lysed with NaOH, the radioactivity absorbed was measured in a counter. Parallel experimental batches were carried out with cytochalasin-B, in order to determine the glucose transporter-dependent glucose translocations.
The results can be expressed as pmol/min×mg of protein.

GLUT4 = experiment: Cellular content of GLUT4 glucose transporters in L6 myotubes; assay type: cell-based; conditions: for Content of GLUT4: 2.5 mM, 4 hours of incubation, control 1.00; for cellular content of GLUT4, in words: after four hours of incubation
Protocol: as §2

T1 sequence (P26284 30-390): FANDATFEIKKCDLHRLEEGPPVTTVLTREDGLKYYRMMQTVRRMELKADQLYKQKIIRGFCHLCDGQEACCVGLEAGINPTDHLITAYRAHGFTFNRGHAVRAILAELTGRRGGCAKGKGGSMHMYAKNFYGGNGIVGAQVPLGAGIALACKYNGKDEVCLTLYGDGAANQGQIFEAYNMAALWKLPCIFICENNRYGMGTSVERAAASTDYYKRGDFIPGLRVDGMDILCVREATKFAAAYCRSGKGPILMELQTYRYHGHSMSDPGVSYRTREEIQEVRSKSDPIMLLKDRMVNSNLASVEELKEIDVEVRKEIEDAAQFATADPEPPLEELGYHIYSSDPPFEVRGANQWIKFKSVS
T1 sequence (P49432 31-359): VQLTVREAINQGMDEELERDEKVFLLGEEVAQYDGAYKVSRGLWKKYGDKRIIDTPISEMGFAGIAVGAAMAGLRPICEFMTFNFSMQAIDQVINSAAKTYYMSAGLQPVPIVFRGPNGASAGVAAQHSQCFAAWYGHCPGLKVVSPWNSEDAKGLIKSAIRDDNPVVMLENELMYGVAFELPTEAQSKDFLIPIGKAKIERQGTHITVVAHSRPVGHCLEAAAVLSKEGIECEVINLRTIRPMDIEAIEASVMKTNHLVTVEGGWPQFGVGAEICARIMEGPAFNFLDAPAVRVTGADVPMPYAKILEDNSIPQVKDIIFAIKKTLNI
T1 sequence (P08461 86-632 limits assumed): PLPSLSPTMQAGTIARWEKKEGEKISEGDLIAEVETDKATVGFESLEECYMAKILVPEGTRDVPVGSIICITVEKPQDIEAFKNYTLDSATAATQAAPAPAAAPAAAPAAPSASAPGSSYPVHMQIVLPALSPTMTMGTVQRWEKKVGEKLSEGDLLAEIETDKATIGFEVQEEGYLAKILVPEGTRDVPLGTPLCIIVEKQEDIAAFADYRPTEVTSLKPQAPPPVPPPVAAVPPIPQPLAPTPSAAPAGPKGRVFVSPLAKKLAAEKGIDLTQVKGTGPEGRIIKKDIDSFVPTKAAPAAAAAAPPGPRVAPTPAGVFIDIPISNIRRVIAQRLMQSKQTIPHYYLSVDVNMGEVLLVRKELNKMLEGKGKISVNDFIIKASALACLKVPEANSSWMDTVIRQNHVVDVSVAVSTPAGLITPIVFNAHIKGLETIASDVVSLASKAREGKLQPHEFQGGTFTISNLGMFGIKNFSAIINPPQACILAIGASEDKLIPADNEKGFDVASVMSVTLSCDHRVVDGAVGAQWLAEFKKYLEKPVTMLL
T1 sequence (Q6P6R2 36-509): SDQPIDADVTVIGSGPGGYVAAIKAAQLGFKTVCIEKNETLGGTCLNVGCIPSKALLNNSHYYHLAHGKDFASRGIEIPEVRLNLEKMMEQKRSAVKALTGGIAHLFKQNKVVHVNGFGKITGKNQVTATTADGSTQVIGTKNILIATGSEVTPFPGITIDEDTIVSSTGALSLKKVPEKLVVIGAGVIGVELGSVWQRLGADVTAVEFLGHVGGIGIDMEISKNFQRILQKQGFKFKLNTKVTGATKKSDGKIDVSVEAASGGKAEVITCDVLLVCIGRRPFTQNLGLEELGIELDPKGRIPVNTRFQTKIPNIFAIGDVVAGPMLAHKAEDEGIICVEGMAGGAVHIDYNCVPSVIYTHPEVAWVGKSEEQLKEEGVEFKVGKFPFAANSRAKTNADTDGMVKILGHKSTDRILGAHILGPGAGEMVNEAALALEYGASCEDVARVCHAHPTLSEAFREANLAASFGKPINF

Row | Molecule | Pyruvate dehydrogenase activity, trend (pyruvate dehydrogenase) | translocation of glucose transporters GLUT 4 from the cytosol to the plasma membrane, in words (GLUT 4) | Content of GLUT1 (GLUT1) | cellular content of GLUT1, in words (GLUT1) | translocation of glucose transporters Glut 1 from the cytosol to the plasma membrane, in words [1] | GLUT1 translocation, Light Microsomal Fraction ([1]; table 4, enantiomers 2.5 mM) | GLUT1 translocation, Plasma Membrane ([1]; table 4, enantiomers 2.5 mM) | GLUT1 translocation, Light Microsomal Fraction ([1]; table 5, enantiomers 2.5 mM) | mortality in comparison to the control [2] | pathologically changed parameter glycosilated hemoglobin, in words [2] | pathologically changed parameter protein oxidation, in words [2] | % Glycosilated Hemoglobin ([2]; table 7) | % Glycosilated Hemoglobin ([2]; table 8) | % Glycosilated Hemoglobin ([2]; table 9) | effect on glucose assimilation together with insulin, in words (L6 myotubes) | effect on glucose assimilation, in words (L6 myotubes; 2.5 mM) | Content of GLUT4 (GLUT4; L6 myotubes) | cellular content of GLUT4, in words (GLUT4) | other results
1 | O=C(O)CCCCC1CCSS1 (racemic) [R,S-(+,-)-α-lipoic acid] |  |  |  |  |  |  |  |  |  |  |  |  |  |  |  |  |  |  | effect on blood sugar (alloxan-induced diabetes): blood sugar-lowering effect; effect relative to that of insulin (rat diaphragms; Haugaard): additive; glucose assimilation by muscles (rat diaphragms; racemate from Calbiochem): increases
2 | O=C(O)CCCC[C@@H]1CCSS1 [R-(+)-α-lipoic acid] | increased | stimulates | 1.81 ± 0.01 arbitrary units | increases | stimulates | 0.46 ± 0.06 relative units | 1.56 ± 0.25 relative units | 0.46 ± 0.06 relative units | reduced | corrects | corrects | 8.4 ± 1.3% | 8.4 ± 1.3% | 8.4 ± 1.3% | not additive | comparable to that of insulin | 1.55 ± 0.24 arbitrary units | increases | stimulation of glucose assimilation compared to the S enantiomer, factor (L6 myotubes; 2.5 mM): greater than 2; Glucose Assimilation R (L6 myotubes; 2.5 mM, incubation time 15): 16.7 ± 0.6 pmol/mg/min; Glucose Assimilation R (L6 myotubes; 2.5 mM, incubation time 30): 15.9 ± 0.9 pmol/mg/min; Glucose Assimilation R (L6 myotubes; 2.5 mM, incubation time 60): 26.1 ± 0.9 pmol/mg/min; Glucose Assimilation R (L6 myotubes; 2.5 mM, incubation time 120): 27.0 ± 0.4 pmol/mg/min; Glucose Assimilation R-(+)-α-Liponic Acid (L6 myotubes; table 2, 2.5 mM, incubation 15 min): 23.2 ± 0.5 pmol/mg/min; Glucose Assimilation R-(+)-α-Liponic Acid (L6 myotubes; table 2, 2.5 mM, incubation 30 min): 21.1 ± 0.4 pmol/mg/min; Glucose Assimilation R-(+)-α-Liponic Acid (L6 myotubes; table 2, 2.5 mM, incubation 60 min): 25.7 ± 0.5 pmol/mg/min
3 | O=C(O)CCCC[C@H]1CCSS1 [S-(-)-α-lipoic acid, reference compound] | Lowered | has no effect or has an inhibiting effect | 1.08 ± 0.01 arbitrary units | has no effect or lowers the cellular content | has no effect or has an inhibiting effect | 0.38 ± 0.09 relative units | 0.93 ± 0.37 relative units | 0.38 ± 0.09 relative units | increased | lesser effect to no effect | lesser effect to no effect | 10.7 ± 2.1% | 10.7 ± 2.1% | 10.7 ± 2.1% | decreases the effect of insulin | less effective | 0.79 ± 0.47 arbitrary units | has no effect or lowers the cellular content | pyruvate dehydrogenase, effect in animal experiments (pyruvate dehydrogenase; animal experiments): inhibited; Glucose Assimilation S (L6 myotubes; 2.5 mM, incubation time 15): 16.3 ± 0.3 pmol/mg/min; Glucose Assimilation S (L6 myotubes; 2.5 mM, incubation time 30): 14.8 ± 0.7 pmol/mg/min; Glucose Assimilation S (L6 myotubes; 2.5 mM, incubation time 60): 21.6 ± 0.4 pmol/mg/min; Glucose Assimilation S (L6 myotubes; 2.5 mM, incubation time 120): 20.5 ± 0.8 pmol/mg/min; Glucose Assimilation S-(-)α-Liponic Acid (L6 myotubes; table 3, 2.5 mM, incubation 15 min): 14.8 ± 0.4 pmol/mg/min; Glucose Assimilation S-(-)α-Liponic Acid (L6 myotubes; table 3, 2.5 mM, incubation 30 min): 13.3 ± 0.4 pmol/mg/min; Glucose Assimilation S-(-)α-Liponic Acid (L6 myotubes; table 3, 2.5 mM, incubation 60 min): 16.0 ± 0.2 pmol/mg/min; total content of glucose transporters in the cell (GLUT4), in words (GLUT4; translocation experiment, L6 myotubes): appears to lower
4 | Insulin: Insulin, added at a concentration of 200 nM |  | stimulates |  |  | stimulates |  | 1.07 ± 0.14 relative units |  |  |  |  |  |  |  |  |  |  |  | GLUT1 translocation, Plasma Membrane ([1]; table 5, enantiomers 2.5 mM): 1.07 ± 0.14 relative units; Glucose Assimilation Insulin (L6 myotubes; table 2, incubation 15 min): 24.7 ± 0.9 pmol/mg/min; Glucose Assimilation Insulin (L6 myotubes; table 2, incubation 30 min): 21.6 ± 0.4 pmol/mg/min; Glucose Assimilation Insulin (L6 myotubes; table 2, incubation 60 min): 23.7 ± 0.5 pmol/mg/min; Glucose Assimilation Insulin (L6 myotubes; table 3, incubation 15 min): 17.7 ± 0.3 pmol/mg/min; Glucose Assimilation Insulin (L6 myotubes; table 3, incubation 30 min): 16.3 ± 0.5 pmol/mg/min; Glucose Assimilation Insulin (L6 myotubes; table 3, incubation 60 min): 22.3 ± 0.5 pmol/mg/min

Source: patent US6284787A, “Use of R-(+)-α-lipoic acid, R-(-)-dihydrolipoic acid and metabolites in the form of the free acid or as salts or esters or amides for the preparation of drugs for the treatment of diabetes mellitus as well as of its sequelae” (Asta Medica Aktiengesellschaft, priority 1993, dated 2001)
